Laboratory results published in US10143686B2, “Oxidosqualene cyclase as a protein target for anticancer therapeutics” (The Curators of the University of Missouri, priority 2010, dated 2018).
Counter-ions that a name gives are not always drawn. Like-named read-outs stand apart in the source and are kept apart here.

How the values were obtained:
[1] = tested on: PC-3 human prostate cancer xenograft; assay: PC-3 prostate tumor xenograft in nude mice
Experimental: Male athymic nu/nu nude mice, 6 weeks-old (21-25 g) were purchased from Harlan Laboratories, Inc. Human prostate cancer PC-3 cells, […] in 0.15 ml solution mixed with matrigel and DMEM/F12 medium (1/1, v/v) were injected into each flank of mouse subcutaneously, and both flanks of each mouse were injected. When tumor volume reached around 100 mm3, animals were randomly assigned to three groups and the treatment started with Ro 48-8071 (5 mg/kg/day or 20 mg/kg/day) via tail-vein injection for five days, followed by same treatment every other day for seven additional times as shown in the FIG. 14A. Animals in control group received the vehicle alone under identical conditions.

[2] = tested on: ZR-75 breast cancer cells; assay: SRB cell viability assay, ZR-75; type: cell-based; conditions: ZR75, ZR-75, Breast (ER+ PR+)
Experimental: (§1) The effect of OSC inhibition was evaluated in additional cancer cell lines as well. Cancer cell lines may be purchased from ATCC (Manassas, Va.). The SRB assay has been employed for determination of the inhibitory effects of RO 48-8071 on growth of different cancer cells. Cells were seeded into 96-well plates and incubated overnight at 37° C. with 5% CO2. The culture medium was removed after 24 hours, and cells were washed with DMEM/F12 medium and then treated with various concentrations of RO 48-8071 in 5% FBS culture medium for 24 and 48 hours. Surviving or adherent cells were fixed in situ by withdrawing the growth medium, adding 100 μl PBS and 100 μl 50% trichloroacetic acid and then incubating at 4° C. for one hour. Cells were washed with ice-cold water, dried at room temperature (RT), and then stained with 50 μl 4% SRB for eight minutes at RT. Unbound dye was removed by washing with cold 1% acetic acid for five times, and plates were dried at RT. Bound stain was solubilized with 150 μl 10 mM Tris buffer and absorbance of samples was read at 520 nm with a SpecTRA MAX 190 microplate reader (Molecular Devices, Sunnyvale, Calif.). Six wells were used for each concentration, and each experiment was performed two to three times.
Effect of RO 48-8071 on estrogen, progesterone, and HER-2/neu receptors positive breast cancer cell line HCC-1428 and ZR-75 viability. […]

[3] = tested on: Capan-1 pancreatic cancer cells; assay: SRB cell viability assay, Capan-1; type: cell-based; conditions: Homo sapiens, Capan-1, Pancreas
Experimental: as §1
Effect of RO 48-8071 on pancreatic cancer cell line Capan-1 viability. […] The culture mediums employed 20% FBS IMDM for culture and 10% FBS IMDM for treatment.

[4] = tested on: T47-D breast cancer cells; assay: SRB cell viability assay, T47-D; type: cell-based; conditions: for IC50: Homo sapiens, T47D, Breast (ER+ PR+)
Experimental: (§2) The sulforhodamine B (SRB) assay was employed to evaluate the effect of OSC inhibitor Ro 48-8071 on viability of breast cancer and normal mammary gland cells with slight modification of the original procedure established at NCI. Accordingly, the cells were seeded in 96-well plates in 100 μl culture medium and incubated overnight at 37° C. with 5% CO2. […] The surviving or adherent cells were fixed in situ by withdrawing the growth medium and adding 100 μl of PBS and 100 μl of 50% cold trichloroacetic acid and then incubating at 4° C. for 1 h. The surviving cells were washed with ice-water, dried at room temperature (RT), and then stained with 50 μl 4% SRB for 8 min at RT. Unbound dye was removed by washing 5 times with cold 1% acetic acid, and the plates were dried at RT. Bound stain was solubilized with 150 μl 10 mM Tris buffer, and absorbance of samples were measured at 520 nm with a SpecTRA MAX 190 microplate reader (Sunnyvale, Calif.). In these experiments on BT-474, T47-D, and AG11132A cell lines, six wells were used for each concentration, and each experiment was performed at least twice.
as §1
Effect of RO 48-8071 on breast cancer cell line T47-D viability. […] The culture mediums employed 10% FBS DMEM/F12 for culture and 5% FBS DMEM/F12 for treatment.

[5] = tested on: A549 lung cancer cells; assay: SRB cell viability assay, A549; type: cell-based; conditions: Homo sapiens
Experimental: as §1
Effect of RO 48-8071 on lung cancer cell line A549 viability. […] The culture mediums employed 10% FBS F-12K for culture and 5% FBS F-12K for treatment.

[6] = tested on: BxPC-3 pancreatic cancer cells; assay: SRB cell viability assay, BxPC-3; type: cell-based; conditions: Homo sapiens, BxPC-3, Pancreas
Experimental: as §1
Effect of RO 48-8071 on pancreatic cancer cell line BxPC-3 viability. […]

[7] = tested on: OV-CAR-3 ovarian cancer cells; assay: SRB cell viability assay, OV-CAR-3; type: cell-based; conditions: Homo sapiens, OVCAR-3, OV-CAR-3, Ovary
Experimental: as §1
Effect of RO 48-8071 on ovarian cancer cell line OVCAR-3 viability. […]

[8] = tested on: BT-474 breast cancer cells; assay: SRB cell viability assay, BT-474; type: cell-based, human; conditions: for IC50: Homo sapiens, BT-474, Breast (ER+ PR+)
Experimental: as §2, §1
Effect of RO 48-8071 on breast cancer cell line BT-474 viability. […] The culture mediums employed 10% FBS DMEM/F12 for culture and 5% FBS DMEM/F12 for treatment.

[9] = 24 hours, read-out: IC50 (μM) (24 hours)
[10] = 48 hours, read-out: IC50 (μM) (48 hours)

## C=CCN(C)CCCCCCOc1ccc(C(=O)c2ccc(Br)cc2)c(F)c1 [Ro 48-8071, 4′-[6-(Allylmethylamino)hexyloxy]-4-bromo-2′-fluorobenzophenone fumarate]
[1]; 5 or 20 mg/kg/day, tail-vein injection, P<0.05 ANOVA, FIG. 14A
  tumor volume versus control group: Significant differences compared with control group
[1]; PC-3 tumor-bearing nude mice
  toxicity at doses used for inhibiting tumor growth: non-toxic
[1]; PC-3 tumor-bearing nude mice, FIG. 14B
  animal weight, control versus treated groups: No significant difference
[2]; [9]
  IC50: 11 ± 0.289 µM
[2]; [10]
  IC50: 7.63 ± 0.304 µM
[3]; [9]
  IC50: 18.6 ± 1.62 µM
[3]; [10]
  IC50: 13.7 ± 0.168 µM
[4]; 24 hours, dose-dependent, FIG. 2B
  effect on cell viability (SRB): significantly inhibit the viability
[4]; [9]
  IC50: 11.5 ± 0.358 µM
[4]; [10]
  IC50: 7.76 ± 0.293 µM
[5]; [9]
  IC50: 13.5 ± 0.928 µM
[5]; [10]
  IC50: 9.26 ± 0.454 µM
[6]; [9]
  IC50: 11.4 ± 0.621 µM
[6]; [10]
  IC50: 7.11 ± 0.102 µM
[7]; [9]
  IC50: 20.5 ± 0.325 µM
[7]; [10]
  IC50: 11.3 ± 0.33 µM
[8]; BT-474, 24 hours, dose-dependent, FIG. 2A
  effect on cell viability (SRB): significantly inhibit the viability
[8]; [9]
  IC50: 9.514 ± 0.05 µM
[8]; [10]
  IC50: 6.06 ± 0.233 µM
